# Results from publication PMC8519033 (Pediatric Obesity, 2021).
# Assays:
# [1] = test system: adolescents in trial 4180; parameters: species or system human; conditions: in vivo
# Procedure: The analyses were conducted using response data at week 20 (phase 2 trial 1807), week 50 (phase 3a trial 1922) or week 56 (phase 3a trials 4180 and 1839) to align with the original analysis in adults. The appropriateness of using different trial lengths for the historical adult trials was evaluated by graphically exploring the weight loss longitudinally. This was deemed appropriate as the maximal effect on weight reduction was reached after 20 weeks of treatment and remained stable thereafter for the trials of longer duration. […] The two age groups differed in the placebo group response, with lower mean responses in adolescents; this difference was consistent across the exposure range as well. […] However, the effect of age group on the maximal effect in the model (Emax) was not significant in these analyses. […] Approximately 64% of the adolescents in the exposure‐response analysis grew more than 0.5 cm during the trial. Of these, some received liraglutide and some received placebo.
# [2] = test system: pubertal adolescents with obesity; conditions: 56-week trial, liraglutide in addition to lifestyle therapy; 95% CI -0.37, -0.08; P = 0.002; cited from earlier work
# [3] = Population pharmacokinetic analysis of liraglutide (one-compartment model, NONMEM FOCE-I; plasma ELISA); assay type: in vivo, human; conditions: for Absorption rate constant KA / Apparent volume of distribution V/F: parameter fixed
# Procedure: As the focus of the analysis was a comparison of different age populations, age was prespecified to be included initially as a categorical variable.
# In trial 4180, Tanner staging (stages 2‐5) of adolescents was assessed by site staff trained in pubertal assessments. For females, assessments of breast and pubic hair development were made. For males, assessments of testicular volume (by orchidometer), penis development and pubic hair development were made. Prepubertal patients were not permitted in the trial.
# The structural model was parameterized in terms of the following parameters: • ka (absorption rate constant) • CL/F (apparent clearance) • V/F (apparent volume of distribution)
# The first‐order conditional estimation with interaction (FOCE‐I) method was used for the population pharmacokinetic analysis, implemented in the non‐linear mixed effects modelling (NONMEM) software.
# An analysis of the influence of covariates on exposure was carried out including all tested covariates in one step, using a confirmatory approach,[32] and disregarding any interactions between age group and sex. Model development involved estimation of a base model without covariates and a full model including all predefined covariates. If any covariates without statistically significant effect could be excluded, the reduced model would be considered the final population pharmacokinetic model. The covariates were prespecified and based on earlier findings in phase 3 trials with adults as well as prior knowledge from smaller trials in children and adolescents.
# Specific steady‐state exposures for individual participants were based on the full model, including all covariates, and derived from the subject‐specific post‐hoc CL/F estimates, the maintenance dose and the dose interval (24 hours): (6) Cavg=Dose/CL/F*24hours
# The CIs for full model parameters were estimated using bootstrapping. For each investigated covariate, differences were considered relevant if the 90% CI of the estimated mean of the relative exposure fell outside the standard bioequivalence limits (0.80‐1.25).
# Between‐subject variability was included for CL/F and V/F, assuming log‐normal distributions […]. Furthermore, CL/F and V/F were estimated using a full variance‐covariance matrix. No between‐subject variability was included for ka. Within‐subject variability (residual) was described by a proportional error model. Standard graphical quality analyses, including goodness‐of‐fit plots (Figure S1), were made during qualification of the pharmacokinetic model.
# [4] = base pharmacokinetic model without covariates
compound,measurement,setting,value
CCCCCCCCCCCCCCCC(=O)N[C@@H](CCC(=O)NCCCC[C@H](NC(=O)[C@H](C)NC(=O)[C@H](C)NC(=O)[C@H](CCC(N)=O)NC(=O)CNC(=O)[C@H](CCC(=O)O)NC(=O)[C@H](CC(C)C)NC(=O)[C@H](Cc1ccc(O)cc1)NC(=O)[C@H](CO)NC(=O)[C@H](CO)NC(=O)[C@@H](NC(=O)[C@H](CC(=O)O)NC(=O)[C@H](CO)NC(=O)[C@@H](NC(=O)[C@H](Cc1ccccc1)NC(=O)[C@@H](NC(=O)CNC(=O)[C@H](CCC(=O)O)NC(=O)[C@H](C)NC(=O)[C@@H](N)Cc1cnc[nH]1)[C@@H](C)O)[C@@H](C)O)C(C)C)C(=O)N[C@@H](CCC(=O)O)C(=O)N[C@@H](Cc1ccccc1)C(=O)N[C@H](C(=O)N[C@@H](C)C(=O)N[C@@H](Cc1c[nH]c2ccccc12)C(=O)N[C@@H](CC(C)C)C(=O)N[C@H](C(=O)N[C@@H](CCCNC(=N)N)C(=O)NCC(=O)N[C@@H](CCCNC(=N)N)C(=O)NCC(=O)O)C(C)C)[C@@H](C)CC)C(=O)O [liraglutide],Average growth (height) during the trial,[1],1.4 cm
same,"BMI standard-deviation score (SDS), estimated treatment difference compared with placebo",[2],−0.22
same,Absorption rate constant KA,[3]; [4],0.0804 h⁻¹
same,Apparent volume of distribution V/F,[3]; [4],13.1 L
same,Absorption rate constant KA,"[3]; final (full covariate) pharmacokinetic model, trials 4180, 3967, 3630, 4181, children, adolescents and adults with obesity, N = 176",0.0813 h⁻¹
same,Body weight exponent on V/F (V-BW),[3]; final pharmacokinetic model,0.587
same,Apparent volume of distribution V/F,"[3]; final pharmacokinetic model, reference subject adult female, 100 kg",13.8 L
